Data on two compounds can be found in US7230143B2, “Chromatographic method for the analysis of both in process and finished sevoflurane” (Halocarbon Products Corporation, priority 2004, dated 2007).

Bounds are passed on as bounds.

The data set can be described thus: Partition of sevoflurane and HFIP in solvent/HF system. The data set is classed as physicochemical. The note with it: equal volumes, 25 C, fraction of original compound found in the solvent, by gas chromatography; for Partition Coefficients of Sevoflurane and HFIP in solvent/HF system: 1,2,3-trichloropropane: solvent 1,2,3-trichloropropane / HF; for Partition Coefficients of Sevoflurane and HFIP in solvent/HF system: HC-0.8 oil: solvent HC-0.8 oil (mixture of tetrachlorobutanes) / HF; for Partition Coefficients of Sevoflurane and HFIP in solvent/HF system: Krytox: solvent Krytox (1:1 mixture of DuPont Krytox GLP 100 and K6) / HF. As for the experimental part: The partitions of sevoflurane and of HFIP in solvent/HF system were measured by mixing a small amount of either sevoflurane or HFIP with a two-layer mixture of equal volumes of a particular solvent and HF at 25 C. After enough mixing to reach equilibrium, the fraction of original compound found in the solvent was determined by gas chromatography and quantified using standards.

For the compound `FCOC(C(F)(F)F)C(F)(F)F` [Sevoflurane, fluoromethyl 2,2,2-trifluoro-1-(trifluoromethyl)ethyl ether], the “Partition Coefficients of Sevoflurane and HFIP in solvent/HF system: 1,2,3-trichloropropane” value turned out to be 0.45; the “Partition Coefficients of Sevoflurane and HFIP in solvent/HF system: HC-0.8 oil” value was determined as 1.00; the “Partition Coefficients of Sevoflurane and HFIP in solvent/HF system: Krytox” value was 0.32; the “Partition Coefficients of Sevoflurane and HFIP in solvent/HF system: Isooctane” value amounted to 0.30. Moreover, the “Partition Coefficients of Sevoflurane and HFIP in solvent/HF system: Perfluoromethyldecalin” value is 0.22.
As for `OC(C(F)(F)F)C(F)(F)F` [HFIP, 1,1,1,3,3,3-hexafluoro-2-propanol], the “Partition Coefficients of Sevoflurane and HFIP in solvent/HF system: 1,2,3-trichloropropane” value is listed as below 0.005; the “Partition Coefficients of Sevoflurane and HFIP in solvent/HF system: HC-0.8 oil” value is reported as 0.01; the “Partition Coefficients of Sevoflurane and HFIP in solvent/HF system: Krytox” value is reported as below 0.005; the “Partition Coefficients of Sevoflurane and HFIP in solvent/HF system: Isooctane” value is recorded as below 0.005. Besides, the “Partition Coefficients of Sevoflurane and HFIP in solvent/HF system: Perfluoromethyldecalin” value is listed as below 0.005.
